Where a SMILES comes first, the peptide text is derived from it. [ ]: non-standard residue; d: D form. The star is where a group is joined. Ala(3-Me-diazirin-3-yl) = CC1(C[C@H](N)C(=O)O)N=N1; Palmitoyl = CCCCCCCCCCCCCCCC(=O)*; Hyp = O=C(O)[C@@H]1C[C@@H](O)CN1; X1 = CCCCCCCCCCCCOCCC(=O)*; Dap = NC[C@H](N)C(=O)O

T1 sequence (P61073 whole entry): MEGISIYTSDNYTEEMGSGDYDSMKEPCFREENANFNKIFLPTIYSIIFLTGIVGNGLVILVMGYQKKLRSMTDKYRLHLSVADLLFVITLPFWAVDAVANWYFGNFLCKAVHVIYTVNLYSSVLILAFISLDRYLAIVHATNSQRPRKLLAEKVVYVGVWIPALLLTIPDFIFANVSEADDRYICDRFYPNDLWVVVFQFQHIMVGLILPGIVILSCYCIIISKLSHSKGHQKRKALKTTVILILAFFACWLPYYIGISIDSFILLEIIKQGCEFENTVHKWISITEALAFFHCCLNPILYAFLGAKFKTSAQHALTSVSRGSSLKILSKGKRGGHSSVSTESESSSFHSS

One experiment has as its target T1, CXCR4 (Homo sapiens, UniProt P61073).
T1 construct: CCRF-CEM cells, a human T-cell ALL line that endogenously expresses CXCR4; endogenous in cells; host or cells: CCRF-CEM (human T-cell acute lymphoblastic leukemia line)
Description: Calcium flux assay, agonist mode, Flexstation (CCRF-CEM cells). Type of experiment: cell-based. Particulars: CCRF-CEM, percent of maximum response compared with SDF-1α, read-out: % Intrinsic Activity. From the text: Calcium Flux Assay is one of the most popular cell-based GPCR functional assays. It most often uses calcium sensing fluorescent dyes such as fura2 AM, fluo-4 and Calcium-4 to measure changes in intracellular calcium concentration. It is used mainly to detect GPCR signaling via Gαq subunit. Activation of these Gq-coupled GPCRs leads to activation of phospholipase C, which subsequently leads to increase in inositol phosphate production. IP3 receptors on endoplasmic reticulum sense the change then release calcium into cytoplasm. Intracellular calcium binding to the fluorescent dyes can be detected by instruments that quantify fluorescent intensities, such as FLIPR Tetra, Flexstation (MDS) and FDSS (Hamamatsu). In addition, to assess Gq-couple receptor signaling, a calcium flux assay can also be used to study Gs and Gi couple receptors by co-expressing CNG (cyclic nucleotide gated calcium channel) or chimeric G-proteins (Gqi5, Gsi5 for example). Activation of some Gi-coupled receptors can also be detected by calcium flux assay via Gβγ mediated phospholipase C activation.
The calcium flux assay was used to assess the test compounds' ability to activate the CXCR4 receptor in CCRF-CEM cells (human T lymphoblasts from acute lymphoblastic leukemia). […] After dye loading by incubating with Calcium-4 dye at 37° C. for 1 hour, cell plates were read at 37° C. using the using the Flexstation 3 workstation. Receptor activation was assessed by measuring changes in fluorescent intensity after the addition of the test compounds or the reference agonist SDF-1α on the using the Flexstation 3 workstation. EC50
and percent intrinsic actively were derived from the data collected. Intrinsic activity refers to the efficacy of the test compound and is calculated as the percent of maximum response compared with the response of the reference standard (i.e., natural agonist, SDF-1α).
As to `CCCCCCCCCCCCCCCC(=O)NCC(=O)NCC(=O)N[C@@H](Cc1ccc(O)cc1)C(=O)N[C@@H](CCC(N)=O)C(=O)N[C@@H](CCCCN)C(=O)N[C@@H](CCCCN)C(=O)N[C@@H](CC(C)C)C(=O)N[C@@H](CCCNC(=N)N)C(=O)N[C@@H](CO)C(=O)N[C@@H](C)C(=O)N[C@H](C(=O)N[C@@H](CC(=O)O)C(=O)N[C@@H](CCCCN)C(=O)N[C@@H](Cc1ccc(O)cc1)C(=O)N[C@@H](CCCNC(=N)N)C(=O)N[C@@H](CC(C)C)C(N)=O)[C@@H](C)O` [Compound 25] (Palmitoyl-GGYQKKLRSATDKYRL-NH2; C-terminus assumed), the Emax was 89.4%.
The same measure, in the same setting: the value for `CCCCCCCCCCCCCCCC(=O)NCC(=O)NCC(=O)N[C@@H](Cc1ccc(O)cc1)C(=O)N[C@@H](CCC(N)=O)C(=O)N[C@@H](CCCCN)C(=O)N[C@@H](CCCCN)C(=O)N[C@@H](CC(C)C)C(=O)N[C@@H](CCCNC(=N)N)C(=O)N1CCC[C@@H]1C(=O)N[C@@H](C)C(=O)N[C@H](C(=O)N[C@@H](CC(=O)O)C(=O)N[C@@H](CCCCN)C(=O)N[C@@H](Cc1ccc(O)cc1)C(=O)N[C@@H](CCCNC(=N)N)C(=O)N[C@@H](CC(C)C)C(N)=O)[C@@H](C)O` [Compound 27] (Palmitoyl-GGYQKKLR[dP]ATDKYRL-NH2; C-terminus assumed) was 111%; that for `CCCCCCCCCCCCCCCC(=O)NCC(=O)NCC(=O)N[C@@H](Cc1ccc(O)cc1)C(=O)N[C@@H](CCC(N)=O)C(=O)N[C@@H](CCCCN)C(=O)N[C@@H](CCCCN)C(=O)N1CCC[C@@H]1C(=O)N[C@@H](CCCNC(=N)N)C(=O)N1CCC[C@@H]1C(=O)N[C@@H](C)C(=O)N[C@H](C(=O)N[C@@H](CC(=O)O)C(=O)N[C@@H](CCCCN)C(=O)N[C@@H](Cc1ccc(O)cc1)C(=O)N[C@@H](CCCNC(=N)N)C(=O)N[C@@H](CC(C)C)C(N)=O)[C@@H](C)O` [Compound 28] (Palmitoyl-GGYQKK[dP]R[dP]ATDKYRL-NH2; C-terminus assumed) was 107%; that for `CCCCCCCCCCCCCCCC(=O)NCC(=O)NCC(=O)N[C@@H](Cc1ccc(O)cc1)C(=O)N[C@@H](CCC(N)=O)C(=O)N[C@@H](CCCCN)C(=O)N[C@@H](CCCCN)C(=O)N[C@@H](CC(C)C)C(=O)N[C@@H](CCCNC(=N)N)C(=O)N1CCC[C@@H]1C(=O)N[C@@H](C)C(=O)N[C@H](C(=O)N[C@@H](CC(=O)O)C(=O)N[C@@H](CCCCN)C(=O)N[C@@H](Cc1ccccc1)C(=O)N[C@@H](CCCNC(=N)N)C(=O)N[C@@H](CC(C)C)C(N)=O)[C@@H](C)O` [Compound 29] (Palmitoyl-GGYQKKLR[dP]ATDKFRL-NH2; C-terminus assumed) was 88.9%.
As to `CCCCCCCCCCCCCCCC(=O)N[C@@H](CS)C(=O)NCC(=O)N[C@@H](Cc1ccc(O)cc1)C(=O)N[C@@H](CCC(N)=O)C(=O)N[C@@H](CCCCN)C(=O)N[C@@H](CCCCN)C(=O)N[C@@H](CC(C)C)C(=O)N[C@@H](CCCNC(=N)N)C(=O)N[C@@H](CO)C(=O)N[C@@H](C)C(=O)N[C@H](C(=O)N[C@@H](CC(=O)O)C(=O)N[C@@H](CCCCN)C(=O)N[C@@H](Cc1ccc(O)cc1)C(=O)N[C@@H](CCCNC(=N)N)C(=O)N[C@@H](CC(C)C)C(N)=O)[C@@H](C)O` [Compound 30] (Palmitoyl-CGYQKKLRSATDKYRL-NH2; C-terminus assumed), the Emax worked out at 95.3%.
The same measure, in the same setting: next, `CCCCCCCCCCCCOCCC(=O)NCC(=O)NCC(=O)N[C@@H](Cc1ccc(O)cc1)C(=O)N[C@@H](CCC(N)=O)C(=O)N[C@@H](CCCCN)C(=O)N[C@@H](CCCCN)C(=O)N[C@@H](CC(C)C)C(=O)N[C@@H](CCCNC(=N)N)C(=O)N[C@@H](CO)C(=O)N[C@@H](C)C(=O)N[C@H](C(=O)N[C@@H](CC(=O)O)C(=O)N[C@@H](CCCCN)C(=O)N[C@@H](Cc1ccc(O)cc1)C(=O)N[C@@H](CCCNC(=N)N)C(=O)N[C@@H](CC(C)C)C(N)=O)[C@@H](C)O` [Compound 31] (X1-GGYQKKLRSATDKYRL-NH2; C-terminus assumed): 84.2%.
On the same count and under the same terms, the value for `CCCCCCCCCCCCCCCC(=O)NCC(=O)NCC(=O)N[C@@H](Cc1ccc(O)cc1)C(=O)N[C@@H](CCC(N)=O)C(=O)N[C@@H](CCCCN)C(=O)N[C@@H](CCCCN)C(=O)N[C@@H](CC(C)C)C(=O)N[C@@H](CCCNC(=N)N)C(=O)N1CCC[C@@H]1C(=O)N1CCC[C@@H]1C(=O)N[C@@H](Cc1c[nH]cn1)C(=O)N[C@H](C(=O)N[C@@H](CC(=O)O)C(=O)N[C@@H](CCCCN)C(=O)N[C@@H](Cc1ccc(O)cc1)C(=O)N[C@@H](CCCNC(=N)N)C(=O)N[C@@H](CC(C)C)C(N)=O)[C@@H](C)O` [Compound 32] (Palmitoyl-GGYQKKLR[dP][dP]HTDKYRL-NH2; C-terminus assumed) was 91.1%; that for `CCCCCCCCCCCCCCCC(=O)NCC(=O)NCC(=O)N[C@@H](Cc1ccc(O)cc1)C(=O)N[C@@H](CCC(N)=O)C(=O)N[C@@H](CCCCN)C(=O)N[C@@H](CCCCN)C(=O)N[C@@H](CC(C)C)C(=O)N[C@@H](CCCNC(=N)N)C(=O)N1CCC[C@@H]1C(=O)N[C@@H](Cc1c[nH]c2ccccc12)C(=O)N[C@H](C(=O)N[C@@H](CC(=O)O)C(=O)N[C@@H](CCCCN)C(=O)N[C@@H](Cc1ccc(O)cc1)C(=O)N[C@@H](CCCNC(=N)N)C(=O)N[C@@H](CC(C)C)C(N)=O)[C@@H](C)O` [Compound 33] (Palmitoyl-GGYQKKLR[dP]WTDKYRL-NH2; C-terminus assumed) was 93%.
As for `CCCCCCCCCCCCCCCC(=O)NCC(=O)NCC(=O)N[C@@H](Cc1ccc(O)cc1)C(=O)N[C@@H](CCC(N)=O)C(=O)N[C@@H](CCCCN)C(=O)N[C@@H](CCCCN)C(=O)N[C@@H](CC(C)C)C(=O)N[C@@H](CCCNC(=N)N)C(=O)N1CCC[C@@H]1C(=O)N[C@@H](CN)C(=O)N[C@H](C(=O)N[C@@H](CC(=O)O)C(=O)N[C@@H](CCCCN)C(=O)N[C@@H](Cc1ccc(O)cc1)C(=O)N[C@@H](CCCNC(=N)N)C(=O)N[C@@H](CC(C)C)C(N)=O)[C@@H](C)O` [Compound 34] (Palmitoyl-GGYQKKLR[dP][Dap]TDKYRL-NH2; C-terminus assumed), the Emax is 103%.
In the case of `CCCCCCCCCCCCCCCC(=O)NCC(=O)NCC(=O)N[C@@H](Cc1ccc(O)cc1)C(=O)N[C@@H](CCC(N)=O)C(=O)N[C@@H](CCCCN)C(=O)N[C@@H](CCCCN)C(=O)N[C@@H](CC(C)C)C(=O)N[C@@H](CCCNC(=N)N)C(=O)N1C[C@H](O)C[C@H]1C(=O)N[C@@H](Cc1c[nH]cn1)C(=O)N[C@H](C(=O)N[C@@H](CC(=O)O)C(=O)N[C@@H](CCCCN)C(=O)N[C@@H](Cc1ccc(O)cc1)C(=O)N[C@@H](CCCNC(=N)N)C(=O)N[C@@H](CC(C)C)C(N)=O)[C@@H](C)O` [Compound 35] (Palmitoyl-GGYQKKLR[Hyp]HTDKYRL-NH2; C-terminus assumed), the Emax was 89.4%.
Same read-out and setting: next, `CCCCCCCCCCCCCCCC(=O)NCC(=O)NCC(=O)N[C@@H](Cc1ccc(O)cc1)C(=O)N[C@@H](CCC(N)=O)C(=O)N[C@@H](CCCCN)C(=O)N[C@@H](CCCCN)C(=O)N[C@@H](CC(C)C)C(=O)N[C@@H](CCCNC(=N)N)C(=O)N1CCC[C@@H]1C(=O)N1C[C@H](O)C[C@H]1C(=O)N[C@H](C(=O)N[C@@H](CC(=O)O)C(=O)N[C@@H](CCCCN)C(=O)N[C@@H](Cc1ccc(O)cc1)C(=O)N[C@@H](CCCNC(=N)N)C(=O)N[C@@H](CC(C)C)C(N)=O)[C@@H](C)O` [Compound 36] (Palmitoyl-GGYQKKLR[dP][Hyp]TDKYRL-NH2; C-terminus assumed): 55.2%; `CCCCCCCCCCCCCCCC(=O)NCC(=O)NCC(=O)N[C@@H](Cc1ccc(O)cc1)C(=O)N[C@@H](CCC(N)=O)C(=O)N[C@@H](CCCCN)C(=O)N[C@@H](CCCCN)C(=O)N[C@@H](CC1(C)N=N1)C(=O)N[C@@H](CCCNC(=N)N)C(=O)N[C@@H](CO)C(=O)N[C@@H](C)C(=O)N[C@H](C(=O)N[C@@H](CC(=O)O)C(=O)N[C@@H](CCCCN)C(=O)N[C@@H](Cc1ccc(O)cc1)C(=O)N[C@@H](CCCNC(=N)N)C(=O)N[C@@H](CC(C)C)C(N)=O)[C@@H](C)O` [Compound 37] (Palmitoyl-GGYQKK[Ala(3-Me-diazirin-3-yl)]RSATDKYRL-NH2; C-terminus assumed): 85.7%; `CCCCCCCCCCCCCCCC(=O)NCC(=O)NCC(=O)N[C@@H](Cc1ccc(O)cc1)C(=O)N[C@@H](CCC(N)=O)C(=O)N[C@@H](CCCCN)C(=O)N[C@@H](CCCCN)C(=O)N[C@@H](Cc1c[nH]cn1)C(=O)N[C@@H](CCCNC(=N)N)C(=O)N[C@@H](CO)C(=O)N[C@@H](C)C(=O)N[C@H](C(=O)N[C@@H](CC(=O)O)C(=O)N[C@@H](CCCCN)C(=O)N[C@@H](Cc1ccc(O)cc1)C(=O)N[C@@H](CCCNC(=N)N)C(=O)N[C@@H](CC(C)C)C(N)=O)[C@@H](C)O` [Compound 38] (Palmitoyl-GGYQKKHRSATDKYRL-NH2; C-terminus assumed): 86.8%.

The same experiment, now with this note: calcium flux.
Broadly, the EC50 is the concentration that produces a half-maximal response. Consider `CCCCCCCCCCCCCCCC(=O)NCC(=O)NCC(=O)N[C@@H](Cc1ccc(O)cc1)C(=O)N[C@@H](CCC(N)=O)C(=O)N[C@@H](CCCCN)C(=O)N[C@@H](CCCCN)C(=O)N[C@@H](CC1(C)N=N1)C(=O)N[C@@H](CCCNC(=N)N)C(=O)N[C@@H](CO)C(=O)N[C@@H](C)C(=O)N[C@H](C(=O)N[C@@H](CC(=O)O)C(=O)N[C@@H](CCCCN)C(=O)N[C@@H](Cc1ccc(O)cc1)C(=O)N[C@@H](CCCNC(=N)N)C(=O)N[C@@H](CC(C)C)C(N)=O)[C@@H](C)O` [Compound 37] (Palmitoyl-GGYQKK[Ala(3-Me-diazirin-3-yl)]RSATDKYRL-NH2; C-terminus assumed), for which the concentration giving a half-maximal response (EC50) was found to be 71.1 nM.

(Values after patent US9155795B2, “CXCR4 receptor compounds” (Anchor Therapeutics, Inc., priority 2010, dated 2015).)
